Assay results published in patent US20100197610A1, “FRUCTOSE 1, 6 BISPHOSPHATE - A NOVEL ANTICONVULSANT DRUG” (Baylor College of Medicine, priority 2007, published 2010).

Columns and labels:
[1] = system: PTZ-induced generalized tonic-clonic seizures; assay: PTZ model of acute seizures; assay type: in vivo, Sprague Dawley rats
Procedure: All animal experiments were carried out in accordance with the National Institutes of Health guide for the care and use of laboratory animals (NIH publication 8023, revised 1996) and with the approval of the local Animal Use Committee. Unless indicated, all chemicals were obtained from Sigma Chemical Co (St. Louis Mo.). Male, Sprague Dawley rats weighing 50-74 g (young) or 147-309 g (adult) were used in this study. Acute seizures were induced by kainic acid (KA; Ocean Produce Int., Canada), pilocarpine or pentylenetetrazole (PTZ) as previously described (Lian et al 2006). These models were chosen because they initiate seizures by different mechanisms and the seizures have a relatively gradual onset compared to seizures initiated by stimulation. There was no difference in the body weight of the animals receiving the different convulsants. For pilocarpine, kainic acid and PTZ, the mean weights were 219±5 g (range 163-275 g), 215±7 g (range 183-258 g), and 216±13 g (range 147-309 g), respectively. The animals in the drug treatment groups were not different in weight from the animals in the control groups.
After administration of KA (10 mg/kg, ip), pilocarpine (scopolamine methyl bromide 1 mg/kg, s.c followed 15 min later by 300 mg/kg, ip pilocarpine) or PTZ (50 mg/kg, ip) (Lian et al., 2006), animals were continuously monitored for seizure activity for at least 5 h after KA or pilocarpine and for 30 min after PTZ. Behavioral seizures were scored by an investigator blinded to the treatment. Latency to the first wet dog shake after KA, latency to the first forelimb clonus (after pilocarpine, kainic acid or PTZ) and the score and duration of seizures were measured. When at least 1 hour had passed without any head bobbing (for pilocarpine) or any wet dog shakes (for KA), seizures were considered over. Status epilepticus lasting longer than 4 hours (for KA) or 5 hours (for pilocarpine) were assigned 4 and 5 hours for seizure duration. For animals receiving PTZ, the seizure duration was defined as the period of tonic-clonic seizures. EEG recording in the hippocampus was conducted as previously described (Lian et al., 2004). After anesthesia, a recording electrode was placed in a burr hole centered at 3.0 mm posterior to bregma, 1.8 mm lateral to the midline and then lowered 3.0 mm. A ground screw and wire was placed over the frontal region in another burr hole. This assembly was fixed to the skull with dental cement.
Adult rats received either D-F1,6BP, sodium valproate (VPA, 0.3 g/kg), 2-DG (0.25, 0.5 g/kg) or normal saline (vehicle) intraperitoneally followed 1 h later by one of the convulsants. The dose for VPA was based on experimental evidence that doses from 0.1 to 0.4 g/kg (ip) are effective in animal models (Bough and Eagles, 2001; Manent et al., 2007). Three doses of F1,6BP (0.25, 0.5 and 1 g/kg) were tested with this dosing schedule. Two additional groups were administered F1,6BP (0.5 or 1 g/kg, n=5) after pilocarpine. In this experiment, the F1,6BP was given intraperitoneally at the first behavioral seizure, which was chewing movements of the jaw. Two additional sets of animals were fed the classic ketogenic diet (No. F3666; Bio-Serv, Frenchtown, N.J.). One set of animals was given the diet beginning on postnatal day 22-26 (KD-Yng) and maintained on this diet for 4 weeks. Thus the seizures were tested in this group when the animals had reached approximately the same age (50-54 days) as the majority of the animals tested.
The latency to seizure onset, seizure score and seizure duration were averaged across animals in each group. Comparisons between groups were done with an analysis of variance with Bonferroni post hoc test. Statistical difference was defined as p<0.05.

[2] = Capillary depletion of brain samples (FDP in stripped vs whole cortex); assay type: in vivo, Sprague-Dawley rats
Procedure: Actual levels of FDP were determined by monitoring absorbance of reduced nicotinamide adenine dinucleotide (NADH) and treating the sample with aldolase (EC 4.1.2.13, 45 units mg-1 diluted 1:27 with distilled water), the enzyme which cleaves FDP into dihydroxyacetone phosphate (DAP) and D-glyceraldehyde 3-phosphate (GAP). DAP and GAP are interconverted by the enzyme triosephosphate isomerase (TIM, EC 5.3.3.1, 5290 units mg-1 diluted 1:120 with distilled water). […] After 5 min the absorbance was read 3 times at 340 nm, each reading 3 min apart. The average of these readings is the initial absorbance (Ai). This step removes any DAP or GAP in the sample and determines the baseline absorbance. Aldolase (0.01 ml) was then added and mixed to cleave FDP into DAP and GAP. Nine minutes after addition of the aldolase, the final absorbance (Af) was determined by 3 readings at 340 nm, each 6 minutes apart. The concentration of FDP in the sample was proportional to the difference in the initial and final absorbance. Two moles of NADH are oxidized for each mole of FDP. Blanks and a FDP standard sample were run in parallel with every assay. Each blank had 1.6 ml of the TEA buffer, 1.4 ml water and the mixture of TIM and GDH. […] Levels of FDP in blood were determined per ml, while levels in tissue samples were determined as a function of tissue weight. […]

Structure (SMILES): O=C(COP(=O)(O)O)[C@@H](O)[C@H](O)[C@H](O)COP(=O)(O)O [F1,6BP, Fructose-1,6-bisphosphate]
- latency to the seizures ([1]; F1,6BP 0.25 g/kg, n=6): 107 ± 6 s
- seizure duration ([1]; F1,6BP 0.25 g/kg, n=6): 18 ± 2 s
- latency to the seizures ([1]; F1,6BP 0.5 g/kg, n=6): 161 ± 16 s
- seizure duration ([1]; F1,6BP 0.5 g/kg, n=6): 12 ± 1 s
- animals with no seizures ([1]; F1,6BP 1 g/kg): Three out of 8
- latency to the seizures ([1]; F1,6BP 1 g/kg, n=7): 259 ± 32 s
- seizure duration ([1]; F1,6BP 1 g/kg, n=7): 11 ± 3 s
- ratio of FDP in the stripped cortex to the FDP in whole cortex ([2]; animals treated with FDP, n=7): 0.91±0.01
- levels of FDP in the endothelial cells compared to control ([2]; sacrificed ≦2 hours or more than 12 hours after FDP): no difference
